From US20090326234A1, “(S)-(-)-Amlodipine Camsylate or Hydrate Thereof And Pharmaceutical Composition Comprising Same” (Hanmi Pharm Co., Ltd., priority 2006, published 2009)
Read-outs that look alike come from different tables or passages of the source.

Conditions: for Purity (area %): HPLC; for degradation: after 36 hours exposure to sunlight; for appearance after exposure to sunlight: exposed to sunlight
[1] = Initial, before exposure to sunlight

Procedure: 100 mg each of the above-mentioned 6 salts was respectively placed in 6 test tubes to prepare a total of 36 samples (6 samples per salt), and they were exposed to sunlight for 36 hours. Then, samples of each salt were taken at 6 hour-intervals and stored in a cool and dark place. After 36 hours, each sample was diluted with a 20 mM ammonium acetate buffer solution (pH=5.0)—acetonitrile mixture (1:1, v/v) and analyzed by HPLC under the following conditions: • Column: Symmetry C8 (4.6 mm×100 mm, 3.5 μm, Water, US) • Eluent: 1 l of a solution of 7 g perchloric acid monohydrate and 1.74 g potassium monohydrogen phosphate in purified water, which adjusted to pH 2.8 by the addition of phosphoric acid.

SMILES: CC1(C)[C@H]2CC[C@]1(CS(=O)(=O)O)C(=O)C2.CCOC(=O)C1=C(COCCN)NC(C)=C(C(=O)OC)[C@@H]1c1ccccc1Cl [(R)-Camsylate of Ref. Ex. 1, S-(−)-amlodipine (R)-camsylate]
- Purity (area %) [1]: 99.8 area %
- degradation: about 5%
- appearance after exposure to sunlight: color change of their surface from off-white to brown, and they becomes partially melted
- Purity (area %) (exposed to sunlight 6 hours): 99.9 area %
- Purity (area %) (exposed to sunlight 12 hours): 99.7 area %
- Purity (area %) (exposed to sunlight 18 hours): 99.0 area %
- Purity (area %) (exposed to sunlight 24 hours): 98.1 area %
- Purity (area %) (exposed to sunlight 30 hours): 96.2 area %
- Purity (area %) (exposed to sunlight 36 hours): 94.8 area %

SMILES: CC1(C)C2CCC1(CS(=O)(=O)O)C(=O)C2.CCOC(=O)C1=C(COCCN)NC(C)=C(C(=O)OC)[C@@H]1c1ccccc1Cl.O (racemic) [(±)-10-Camsylate hydrate of Ex. 3, S-(−)-amlodipine (±)-10-camsylate hydrate]
- Purity (area %) [1]: 99.8 area %
- Purity (area %) (exposed to sunlight 6 hours): 99.9 area %
- Purity (area %) (exposed to sunlight 12 hours): 99.8 area %
- Purity (area %) (exposed to sunlight 18 hours): 99.7 area %
- Purity (area %) (exposed to sunlight 24 hours): 99.6 area %
- Purity (area %) (exposed to sunlight 30 hours): 99.4 area %
- Purity (area %) (exposed to sunlight 36 hours): 99.3 area %

SMILES: CC1(C)[C@@H]2CC[C@@]1(CS(=O)(=O)O)C(=O)C2.CCOC(=O)C1=C(COCCN)NC(C)=C(C(=O)OC)[C@@H]1c1ccccc1Cl [(1S)-(+)-10-Camsylate anhydride of Ex. 2, S-(−)-amlodipine (1S)-(+)-10-camsylate anhydride]
- Purity (area %) [1]: 99.9 area %
- Purity (area %) (exposed to sunlight 6 hours): 99.9 area %
- Purity (area %) (exposed to sunlight 12 hours): 99.9 area %
- Purity (area %) (exposed to sunlight 18 hours): 99.9 area %
- Purity (area %) (exposed to sunlight 24 hours): 99.8 area %
- Purity (area %) (exposed to sunlight 30 hours): 99.7 area %
- Purity (area %) (exposed to sunlight 36 hours): 99.7 area %

SMILES: CCOC(=O)C1=C(COCCN)NC(C)=C(C(=O)OC)C1c1ccccc1Cl (stereo not drawn) [Nicotinate dehydrate, (s)-(−)-amlodipine nicotinate dihyrate]
- Purity (area %) [1]: 99.8 area %
- degradation: ~2%
- Purity (area %) (exposed to sunlight 6 hours): 99.6 area %
- Purity (area %) (exposed to sunlight 12 hours): 99.0 area %
- Purity (area %) (exposed to sunlight 18 hours): 98.3 area %
- Purity (area %) (exposed to sunlight 24 hours): 98.3 area %
- Purity (area %) (exposed to sunlight 30 hours): 98.2 area %
- Purity (area %) (exposed to sunlight 36 hours): 97.9 area %

SMILES: CCOC(=O)C1=C(COCCN)NC(C)=C(C(=O)OC)[C@@H]1c1ccccc1Cl.O=S(=O)(O)c1ccccc1 [Besylate, (S)-(−)-amlodipine besylate]
- Purity (area %) [1]: 99.8 area %
- degradation: about 7%
- appearance after exposure to sunlight: color change of their surface from off-white to brown, and they becomes partially melted
- Purity (area %) (exposed to sunlight 6 hours): 99.9 area %
- Purity (area %) (exposed to sunlight 12 hours): 99.4 area %
- Purity (area %) (exposed to sunlight 18 hours): 98.5 area %
- Purity (area %) (exposed to sunlight 24 hours): 96.4 area %
- Purity (area %) (exposed to sunlight 30 hours): 94.4 area %
- Purity (area %) (exposed to sunlight 36 hours): 93.4 area %

SMILES: CC1(C)[C@@H]2CC[C@@]1(CS(=O)(=O)O)C(=O)C2.CCOC(=O)C1=C(COCCN)NC(C)=C(C(=O)OC)[C@@H]1c1ccccc1Cl.O [(1S)-(+)-10-Camsylate hydrate of Ex. 1, S-(−)-amlodipine (1S)-(+)-10-camsylate hydrate]
- Purity (area %) [1]: 99.9 area %
- Purity (area %) (exposed to sunlight 6 hours): 99.9 area %
- Purity (area %) (exposed to sunlight 12 hours): 99.9 area %
- Purity (area %) (exposed to sunlight 18 hours): 99.8 area %
- Purity (area %) (exposed to sunlight 24 hours): 99.8 area %
- Purity (area %) (exposed to sunlight 30 hours): 99.7 area %
- Purity (area %) (exposed to sunlight 36 hours): 99.7 area %
